What was measured:
Assay in all cases: Test C pre/postemergence
Assay type in all cases: in vivo
Conditions in all cases: Preemergence
[1] = test system: common (oilseed) sunflower (Helianthus annuus)
Procedure, shortened: (§1)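 Seeds sown and sprayed preemergence with test compound in non-phytotoxic solvent containing surfactant; postemergence sprays, same formulation, went onto plants 2 to 18 cm tall (1- to 4-leaf stage). Plants held in greenhouse 12 to 14 days, then visually rated against untreated controls on a 0–100 scale (0 no effect, 100 complete control).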

[2] = test system: Surinam grass (Brachiaria decumbens)
Procedure, shortened: as §1

[3] = test system: common ragweed (Ambrosia elatior)
Procedure, shortened: as §1

[4] = test system: cocklebur (Xanthium strumarium)
Procedure, shortened: as §1

[5] = test system: velvetleaf (Abutilon theophrasti)
Procedure, shortened: as §1

[6] = test system: goosegrass (Eleusine indica)
Procedure, shortened: as §1

corn (Zea mays) = test system: corn (Zea mays)
Procedure, shortened: as §1

[7] = test system: lambsquarters (Chenopodium album)
Procedure, shortened: as §1

[8] = test system: crabgrass (Digitaria sanguinalis)
Procedure, shortened: as §1

kochia (Kochia scoparia) = test system: kochia (Kochia scoparia)
Procedure, shortened: as §1

[9] = test system: yellow nutsedge (Cyperus esculentus)
Procedure, shortened: as §1

[10] = test system: pigweed (Amaranthus retroflexus)
Procedure, shortened: as §1

[11] = 16 g ai/ha, scale 0 to 100, 0 no effect, 100 complete control
[12] = 31 g ai/ha, scale 0 to 100, 0 no effect, 100 complete control
[13] = 62 g ai/ha, scale 0 to 100, 0 no effect, 100 complete control

## Nc1nc(C2CC2)nc(C(=O)[O-])c1Cl.[Na+] [Compound 77, 6-amino-5-chloro-2-cyclopropyl-4-pyrimidinecarboxylic acid monosodium salt]
[1]; Helianthus annuus, pre-emergence, 31 g ai/ha, scale 0 to 100, 0 no effect, 100 complete control, read-out: Plant response rating, Sunflower
  pest or weed control at 31 g/ha: 50%
[1]; Helianthus annuus, pre-emergence, 62 g ai/ha, scale 0 to 100, 0 no effect, 100 complete control, read-out: Plant response rating, Sunflower
  pest or weed control at 62 g/ha: 100%
[1]; [11]
  Plant response rating, Sunflower: 20
[2]; [11]
  Plant response rating, Surinam Grass: 0
[2]; Urochloa decumbens, pre-emergence, 31 g ai/ha, scale 0 to 100, 0 no effect, 100 complete control, read-out: Plant response rating, Surinam Grass
  pest or weed control at 31 g/ha: 0%
[2]; Urochloa decumbens, pre-emergence, 62 g ai/ha, scale 0 to 100, 0 no effect, 100 complete control, read-out: Plant response rating, Surinam Grass
  pest or weed control at 62 g/ha: 0%
[3]; Ambrosia artemisiifolia, pre-emergence, 31 g ai/ha, scale 0 to 100, 0 no effect, 100 complete control, read-out: Plant response rating, Ragweed
  pest or weed control at 31 g/ha: 0%
[3]; Ambrosia artemisiifolia, pre-emergence, 62 g ai/ha, scale 0 to 100, 0 no effect, 100 complete control, read-out: Plant response rating, Ragweed
  pest or weed control at 62 g/ha: 50%
[3]; [11]
  Plant response rating, Ragweed: 0
[4]; [11]
  Plant response rating, Cocklebur: 55
[4]; [12]
  Plant response rating, Cocklebur: 70
[4]; Xanthium strumarium, pre-emergence, 62 g ai/ha, scale 0 to 100, 0 no effect, 100 complete control, read-out: Plant response rating, Cocklebur
  pest or weed control at 62 g/ha: 80%
[4]; Xanthium strumarium, pre-emergence, 125 g ai/ha, scale 0 to 100, read-out: Plant response rating, Cocklebur
  pest or weed control at 125 g/ha: 95%
[5]; Abutilon theophrasti, pre-emergence, 62 g ai/ha, scale 0 to 100, 0 no effect, 100 complete control, read-out: Plant response rating, Velvetleaf
  pest or weed control at 62 g/ha: 85%
[5]; [11]
  Plant response rating, Velvetleaf: 10
[5]; [12]
  Plant response rating, Velvetleaf: 30
[6]; Eleusine indica, pre-emergence, 31 g ai/ha, scale 0 to 100, 0 no effect, 100 complete control, read-out: Plant response rating, Goosegrass
  pest or weed control at 31 g/ha: 0%
[6]; Eleusine indica, pre-emergence, 62 g ai/ha, scale 0 to 100, 0 no effect, 100 complete control, read-out: Plant response rating, Goosegrass
  pest or weed control at 62 g/ha: 0%
[6]; [11]
  Plant response rating, Goosegrass: 0
[6]; 125 g ai/ha, scale 0 to 100
  Plant response rating, Goosegrass: 0
Corn (Zea mays); [11]
  Plant response rating, Corn: 0
Corn (Zea mays); [12]
  Plant response rating, Corn: 0
Corn (Zea mays); [13]
  Plant response rating, Corn: 0
Corn (Zea mays); 125 g ai/ha, scale 0 to 100
  Plant response rating, Corn: 35
[7]; [11]
  Plant response rating, Lambsquarters: 0
[7]; [12]
  Plant response rating, Lambsquarters: 0
[7]; 125 g ai/ha, scale 0 to 100
  Plant response rating, Lambsquarters: 40
[8]; Digitaria sanguinalis, pre-emergence, 31 g ai/ha, scale 0 to 100, 0 no effect, 100 complete control, read-out: Plant response rating, Crabgrass
  pest or weed control at 31 g/ha: 0%
[8]; Digitaria sanguinalis, pre-emergence, 62 g ai/ha, scale 0 to 100, 0 no effect, 100 complete control, read-out: Plant response rating, Crabgrass
  pest or weed control at 62 g/ha: 0%
[8]; [11]
  Plant response rating, Crabgrass: 0
[8]; 125 g ai/ha, scale 0 to 100
  Plant response rating, Crabgrass: 0
Kochia (Kochia scoparia); Bassia scoparia, pre-emergence, 125 g ai/ha, scale 0 to 100, read-out: Plant response rating, Kochia
  pest or weed control at 125 g/ha: 80%
Kochia (Kochia scoparia); [11]
  Plant response rating, Kochia: 20
Kochia (Kochia scoparia); [13]
  Plant response rating, Kochia: 50
[9]; Cyperus, pre-emergence, 31 g ai/ha, scale 0 to 100, 0 no effect, 100 complete control, read-out: Plant response rating, Nutsedge, Yellow
  pest or weed control at 31 g/ha: 0%
[9]; Cyperus, pre-emergence, 62 g ai/ha, scale 0 to 100, 0 no effect, 100 complete control, read-out: Plant response rating, Nutsedge, Yellow
  pest or weed control at 62 g/ha: 0%
[9]; [11]
  Plant response rating, Nutsedge, Yellow: 0
[10]; Amaranthus retroflexus, pre-emergence, 31 g ai/ha, scale 0 to 100, 0 no effect, 100 complete control, read-out: Plant response rating, Pigweed
  pest or weed control at 31 g/ha: 60%
[10]; Amaranthus retroflexus, pre-emergence, 62 g ai/ha, scale 0 to 100, 0 no effect, 100 complete control, read-out: Plant response rating, Pigweed
  pest or weed control at 62 g/ha: 65%
[10]; [11]
  Plant response rating, Pigweed: 60

## CCOC(=O)C(Cl)c1nc(C2CC2)nc(N)c1Br (stereo not shown) [Compound 31]
[1]; [12]
  Plant response rating, Sunflower: 0
[1]; [13]
  Plant response rating, Sunflower: 0
[1]; 125 g ai/ha, scale 0 to 100
  Plant response rating, Sunflower: 5
[1]; 250 g ai/ha, scale 0 to 100
  Plant response rating, Sunflower: 70
[2]; [12]
  Plant response rating, Surinam Grass: 0
[2]; [13]
  Plant response rating, Surinam Grass: 0
[2]; 125 g ai/ha, scale 0 to 100
  Plant response rating, Surinam Grass: 0
[2]; 250 g ai/ha, scale 0 to 100
  Plant response rating, Surinam Grass: 0
[3]; [12]
  Plant response rating, Ragweed: 5
[3]; [13]
  Plant response rating, Ragweed: 10
[3]; 125 g ai/ha, scale 0 to 100
  Plant response rating, Ragweed: 60
[3]; 250 g ai/ha, scale 0 to 100
  Plant response rating, Ragweed: 60
[4]; [12]
  Plant response rating, Cocklebur: 0
[4]; [13]
  Plant response rating, Cocklebur: 60
[4]; 125 g ai/ha, scale 0 to 100
  Plant response rating, Cocklebur: 75
[4]; 250 g ai/ha, scale 0 to 100
  Plant response rating, Cocklebur: 85
[5]; [12]
  Plant response rating, Velvetleaf: 0
[5]; [13]
  Plant response rating, Velvetleaf: 0
[5]; 125 g ai/ha, scale 0 to 100
  Plant response rating, Velvetleaf: 0
[5]; 250 g ai/ha, scale 0 to 100
  Plant response rating, Velvetleaf: 60
[6]; [12]
  Plant response rating, Goosegrass: 0
[6]; [13]
  Plant response rating, Goosegrass: 0
[6]; 125 g ai/ha, scale 0 to 100
  Plant response rating, Goosegrass: 0
[6]; 250 g ai/ha, scale 0 to 100
  Plant response rating, Goosegrass: 20
Corn (Zea mays); [12]
  Plant response rating, Corn: 0
Corn (Zea mays); [13]
  Plant response rating, Corn: 0
Corn (Zea mays); 125 g ai/ha, scale 0 to 100
  Plant response rating, Corn: 0
Corn (Zea mays); 250 g ai/ha, scale 0 to 100
  Plant response rating, Corn: 0
[7]; [12]
  Plant response rating, Lambsquarters: 0
[7]; [13]
  Plant response rating, Lambsquarters: 40
[7]; 125 g ai/ha, scale 0 to 100
  Plant response rating, Lambsquarters: 40
[7]; 250 g ai/ha, scale 0 to 100
  Plant response rating, Lambsquarters: 80
[8]; [12]
  Plant response rating, Crabgrass: 0
[8]; [13]
  Plant response rating, Crabgrass: 0
[8]; 125 g ai/ha, scale 0 to 100
  Plant response rating, Crabgrass: 0
[8]; 250 g ai/ha, scale 0 to 100
  Plant response rating, Crabgrass: 0
Kochia (Kochia scoparia); [12]
  Plant response rating, Kochia: 0
Kochia (Kochia scoparia); [13]
  Plant response rating, Kochia: 0
Kochia (Kochia scoparia); 125 g ai/ha, scale 0 to 100
  Plant response rating, Kochia: 50
Kochia (Kochia scoparia); 250 g ai/ha, scale 0 to 100
  Plant response rating, Kochia: 70
[9]; [12]
  Plant response rating, Nutsedge, Yellow: 0
[9]; [13]
  Plant response rating, Nutsedge, Yellow: 0
[9]; 125 g ai/ha, scale 0 to 100
  Plant response rating, Nutsedge, Yellow: 0
[9]; 250 g ai/ha, scale 0 to 100
  Plant response rating, Nutsedge, Yellow: 0
[10]; [12]
  Plant response rating, Pigweed: 10
[10]; [13]
  Plant response rating, Pigweed: 30
[10]; 125 g ai/ha, scale 0 to 100
  Plant response rating, Pigweed: 35
[10]; 250 g ai/ha, scale 0 to 100
  Plant response rating, Pigweed: 40

Source: patent US8802597B2, “Herbicidal pyrimidines” (E I du Pont de Nemours and Company, priority 2003, dated 2014)
